Laboratory results: ChEMBL document CHEMBL4138123, “Design, synthesis and biological evaluation of novel pyrazolochalcones as potential modulators of PI3K/Akt/mTOR pathway and inducers of apoptosis in breast cancer cells” (Eur J Med Chem, 2017)

Legend:
Assay type in all cases: functional
SNB-19 = test: Cytotoxicity against human SNB19 cells assessed as growth inhibition after 48 hrs by sulforhodamine B assay; details: SNB-19, 48 h; for CC50: read-out: LC50 (the source's name)
U-251 [1] = test: Cytotoxicity against human U251 cells assessed as growth inhibition after 48 hrs by sulforhodamine B assay; details: U-251, 48 h
LOX IMVI = test: Cytotoxicity against human LOXIMVI cells assessed as growth inhibition after 48 hrs by sulforhodamine B assay
UACC-257 [2] = test: Cytotoxicity against human UACC257 cells assessed as growth inhibition after 48 hrs by sulforhodamine B assay; details: UACC-257, 48 h
OVCAR-4 [3] = test: Cytotoxicity against human OVCAR4 cells assessed as growth inhibition after 48 hrs by sulforhodamine B assay; details: OVCAR-4, 48 h
RXF 393 [4] = test: Cytotoxicity against human RXF393 cells assessed as growth inhibition after 48 hrs by sulforhodamine B assay; details: RXF 393, 48 h
DU-145 = test: Cytotoxicity against human DU145 cells assessed as growth inhibition after 48 hrs by sulforhodamine B assay; details: DU-145, 48 h; for CC50: read-out: LC50 (the source's name)
Hs-578T [5] = test: Cytotoxicity against human Hs 578T cells assessed as growth inhibition after 48 hrs by sulforhodamine B assay
BT-549 [6] = test: Cytotoxicity against human BT549 cells assessed as growth inhibition after 48 hrs by sulforhodamine B assay; details: BT-549, 48 h
ACHN = test: Cytotoxicity against human ACHN cells assessed as cell growth at 0.01 uM after 48 hrs by sulforhodamine B assay relative to control; details: read-out: Activity
OVCAR-3 = test: Cytotoxicity against human OVCAR3 cells assessed as cell growth at 0.01 uM after 48 hrs by sulforhodamine B assay relative to control; details: OVCAR-3, 48 h, read-out: Activity
UACC-257 [7] = test: Cytotoxicity against human UACC257 cells assessed as cell growth at 0.01 uM after 48 hrs by sulforhodamine B assay relative to control; details: UACC-257, 48 h, read-out: Activity
NCI-H522 [8] = test: Cytotoxicity against human NCI-H522 cells assessed as cell growth at 0.01 uM after 48 hrs by sulforhodamine B assay relative to control; details: NCI-H522, 48 h, read-out: Activity
HL-60(TB) = test: Cytotoxicity against human HL-60(TB) cells assessed as cell growth at 0.1 uM after 48 hrs by sulforhodamine B assay relative to control; details: HL-60, 48 h, read-out: Activity
HCT-116 = test: Cytotoxicity against human HCT116 cells assessed as cell growth at 0.1 uM after 48 hrs by sulforhodamine B assay relative to control; details: HCT-116, 48 h, read-out: Activity
SW-620 = test: Cytotoxicity against human SW620 cells assessed as cell growth at 0.1 uM after 48 hrs by sulforhodamine B assay relative to control; details: SW-620, 48 h, read-out: Activity
U-251 [9] = test: Cytotoxicity against human U251 cells assessed as cell growth at 0.1 uM after 48 hrs by sulforhodamine B assay relative to control; details: U-251, 48 h, read-out: Activity
Malme-3M = test: Cytotoxicity against human MALME-3M cells assessed as cell growth at 0.1 uM after 48 hrs by sulforhodamine B assay relative to control; details: read-out: Activity
UACC-257 [10] = test: Cytotoxicity against human UACC257 cells assessed as cell growth at 0.1 uM after 48 hrs by sulforhodamine B assay relative to control; details: UACC-257, 48 h, read-out: Activity
UACC-62 [11] = test: Cytotoxicity against human UACC62 cells assessed as cell growth at 0.1 uM after 48 hrs by sulforhodamine B assay relative to control; details: UACC-62, 48 h, read-out: Activity
786-0 = test: Cytotoxicity against human 786-0 cells assessed as cell growth at 0.1 uM after 48 hrs by sulforhodamine B assay relative to control; details: 786-0, 48 h, read-out: Activity
MCF7 [12] = test: Cytotoxicity against human MCF7 cells assessed as cell growth at 0.1 uM after 48 hrs by sulforhodamine B assay relative to control; details: MCF7, 48 h, read-out: Activity
Hs-578T [13] = test: Cytotoxicity against human Hs 578T cells assessed as cell growth at 0.1 uM after 48 hrs by sulforhodamine B assay relative to control; details: read-out: Activity
SF-268 = test: Cytotoxicity against human SF268 cells assessed as cell growth at 1 uM after 48 hrs by sulforhodamine B assay relative to control; details: SF-268, 48 h, read-out: Activity
RXF 393 [14] = test: Cytotoxicity against human RXF393 cells assessed as cell growth at 1 uM after 48 hrs by sulforhodamine B assay relative to control; details: RXF 393, 48 h, read-out: Activity
PC-3 [15] = test: Cytotoxicity against human PC3 cells assessed as cell growth at 1 uM after 48 hrs by sulforhodamine B assay relative to control; details: PC-3, 48 h, read-out: Activity
NCI-H322M = test: Cytotoxicity against human NCI-H322M cells assessed as cell growth at 10 uM after 48 hrs by sulforhodamine B assay relative to control; details: read-out: Activity
NCI-H522 [16] = test: Cytotoxicity against human NCI-H522 cells assessed as cell growth at 10 uM after 48 hrs by sulforhodamine B assay relative to control; details: NCI-H522, 48 h, read-out: Activity
MDA-MB-435 [17] = test: Cytotoxicity against human MDA-MB-435 cells assessed as cell growth at 10 uM after 48 hrs by sulforhodamine B assay relative to control; details: MDA-MB-435, 48 h, read-out: Activity
MCF7 [18] = test: Cytotoxicity against human MCF7 cells assessed as cell growth at 10 uM after 48 hrs by sulforhodamine B assay relative to control; details: MCF7, 48 h, read-out: Activity
T47D = test: Cytotoxicity against human T47D cells assessed as cell growth at 10 uM after 48 hrs by sulforhodamine B assay relative to control; details: read-out: Activity
MDA-MB-435 [19] = test: Cytotoxicity against human MDA-MB-435 cells assessed as cell growth at 100 uM after 48 hrs by sulforhodamine B assay relative to control; details: MDA-MB-435, 48 h, read-out: Activity
UACC-62 [20] = test: Cytotoxicity against human UACC62 cells assessed as cell growth at 100 uM after 48 hrs by sulforhodamine B assay relative to control; details: UACC-62, 48 h, read-out: Activity
OVCAR-4 [21] = test: Cytotoxicity against human OVCAR4 cells assessed as cell growth at 100 uM after 48 hrs by sulforhodamine B assay relative to control; details: OVCAR-4, 48 h, read-out: Activity
PC-3 [22] = test: Cytotoxicity against human PC3 cells assessed as cell growth at 100 uM after 48 hrs by sulforhodamine B assay relative to control; details: PC-3, 48 h, read-out: Activity
BT-549 [23] = test: Cytotoxicity against human BT549 cells assessed as cell growth at 100 uM after 48 hrs by sulforhodamine B assay relative to control; details: BT-549, 48 h, read-out: Activity

`COc1cc(-c2cc(/C=C/C(=O)c3ccc4c(c3)OCO4)[nH]n2)cc(OC)c1OC` was tested, and the TGI (SNB-19) was over 100 µM, the CC50 (SNB-19) was over 100 µM and the LC50 (U-251 [1]) was 59.5 µM. The TGI (U-251 [1]) was 5.45 µM, the LC50 (LOX IMVI) was 7.83 µM and the TGI (LOX IMVI) was 3.78 µM. For the same compound, the LC50 (UACC-257 [2]) was over 100 µM, the TGI (UACC-257 [2]) was 40.3 µM and the LC50 (OVCAR-4 [3]) was over 100 µM. For the same compound, the TGI (OVCAR-4 [3]) was over 100 µM, the LC50 (concentration killing 50% of cells) (RXF 393 [4]) was 5.55 µM and the TGI (RXF 393 [4]) was 2.87 µM. The TGI (DU-145) was 9.56 µM, the CC50 (DU-145) was over 100 µM and the LC50 (Hs-578T [5]) was over 100 µM. The TGI (Hs-578T [5]) was 78.7 µM, the LC50 (concentration killing 50% of cells) (BT-549 [6]) was over 100 µM and the growth at 0.01 µM (ACHN) was 108%. For the same compound, the growth at 0.01 µM (OVCAR-3) was 104%, the growth at 0.01 µM (UACC-257 [7]) was 86% and the growth at 0.01 µM (NCI-H522 [8]) was 87%. The growth at 0.1 µM (HL-60(TB)) was 95%, the growth at 0.1 µM (HCT-116) was 101% and the growth at 0.1 µM (SW-620) was 96%. For the same compound, the growth at 0.1 µM (U-251 [9]) was 95%, the growth at 0.1 µM (Malme-3M) was 91% and the growth at 0.1 µM (UACC-257 [10]) was 91%. For the same compound, the growth at 0.1 µM (UACC-62 [11]) was 96%, the growth at 0.1 µM (786-0) was 97% and the growth at 0.1 µM (MCF7 [12]) was 94%. For the same compound, the growth at 0.1 µM (Hs-578T [13]) was 98%, the growth at 1 µM (SF-268) was 90% and the growth at 1 µM (RXF 393 [14]) was 80%. The growth at 1 µM (PC-3 [15]) was 86%, the growth at 10 µM (NCI-H322M) was 3% and the growth at 10 µM (NCI-H522 [16]) was -88%. For the same compound, the growth at 10 µM (MDA-MB-435 [17]) was -15%, the growth at 10 µM (MCF7 [18]) was -1% and the growth at 10 µM (T47D) was 6%. For the same compound, the growth at 100 µM (MDA-MB-435 [19]) was 4%, the growth at 100 µM (UACC-62 [20]) was 22% and the growth at 100 µM (OVCAR-4 [21]) was 3%. It also gave a growth at 100 µM (PC-3 [22]) of -38%.
`COc1ccc(-c2cc(/C=C/C(=O)c3cc(OC)c(OC)c(OC)c3)[nH]n2)cc1OC` gave a GI50 (SNB-19) of 1.8 µM, a TGI (SNB-19) of 5.32 µM and a CC50 (SNB-19) of 27.1 µM. The GI50 (U-251 [1]) was 1.24 µM, the LC50 (U-251 [1]) was 5.13 µM and the TGI (U-251 [1]) was 2.53 µM. For the same compound, the GI50 (LOX IMVI) was 1.46 µM, the LC50 (LOX IMVI) was 5.7 µM and the TGI (LOX IMVI) was 2.88 µM. It also gave a GI50 (UACC-257 [2]) of 1.79 µM, an LC50 (UACC-257 [2]) of 8.05 µM and a TGI (UACC-257 [2]) of 3.8 µM. The GI50 (OVCAR-4 [3]) was 1.62 µM, the TGI (OVCAR-4 [3]) was 7.17 µM and the GI50 (RXF 393 [4]) was 1.53 µM. For the same compound, the LC50 (concentration killing 50% of cells) (RXF 393 [4]) was 6.51 µM, the TGI (RXF 393 [4]) was 3.16 µM and the GI50 (DU-145) was 1.83 µM. For the same compound, the TGI (DU-145) was 4.12 µM, the CC50 (DU-145) was 9.28 µM and the GI50 (Hs-578T [5]) was 2.91 µM. It also gave an LC50 (Hs-578T [5]) of over 100 µM, a TGI (Hs-578T [5]) of 22.1 µM and a GI50 (BT-549 [6]) of 1.36 µM. It also gave an LC50 (concentration killing 50% of cells) (BT-549 [6]) of 6.32 µM, a TGI (BT-549 [6]) of 2.93 µM and a growth at 0.01 µM (ACHN) of 95%. For the same compound, the growth at 0.01 µM (OVCAR-3) was 99%, the growth at 0.01 µM (UACC-257 [7]) was 96% and the growth at 0.01 µM (NCI-H522 [8]) was 89%. For the same compound, the growth at 0.1 µM (HL-60(TB)) was 93%, the growth at 0.1 µM (HCT-116) was 88% and the growth at 0.1 µM (SW-620) was 96%. For the same compound, the growth at 0.1 µM (U-251 [9]) was 92%, the growth at 0.1 µM (Malme-3M) was 89% and the growth at 0.1 µM (UACC-257 [10]) was 97%. It also gave a growth at 0.1 µM (UACC-62 [11]) of 98%, a growth at 0.1 µM (786-0) of 91% and a growth at 0.1 µM (MCF7 [12]) of 86%. It also gave a growth at 0.1 µM (Hs-578T [13]) of 97%, a growth at 1 µM (SF-268) of 81% and a growth at 1 µM (RXF 393 [14]) of 80%. It also gave a growth at 1 µM (PC-3 [15]) of 71%, a growth at 10 µM (NCI-H322M) of -23% and a growth at 10 µM (NCI-H522 [16]) of -94%. It also gave a growth at 10 µM (MDA-MB-435 [17]) of -55%, a growth at 10 µM (MCF7 [18]) of -81% and a growth at 10 µM (T47D) of -37%. The growth at 100 µM (MDA-MB-435 [19]) was -78%, the growth at 100 µM (UACC-62 [20]) was -80% and the growth at 100 µM (PC-3 [22]) was -74%. For the same compound, the growth at 100 µM (BT-549 [23]) was -93%.
